Legend:
anesthetized dogs = experiment: Diuretic effect in anesthetized dogs (urine collection via ureter cannulae); format: in vivo, Adult mongrel dogs; settings: for ED100: 10 min, dose at which urine collected for 10 minutes after administration is twice the amount collected for 10 minutes before; for diuretic effect: high dose of 2 mg/kg
Experimental: Evaluation Test 2 [Diuretic effect in anesthetized dogs3
Adult mongrel dogs of either sex were used in this experiment. Each dog was anesthetized by intravenous administration of 30 mg/kg of pentobarbital sodium. Thereafter, a midline incision was made in the lower abdominal region and polyethylene cannulae for the collection of urine were inserted into the right and left ureters. In addition, a polyethylene cannula was inserted into the left femoral vein, through which 50 ml of physiological saline was administered. Thirty minutes after that, physiological saline was continuously infused at a rate of 1.5 ml/min. The experiment was started after the rate of urine excretion became constant. A compound to be tested was dissolved in dimethylformamide and administered intravenously by way of the right femoral vein, and blood pressure was surgically monitored by way of the right femoral artery.
The ED100 of the compound was defined as the dose at which the amount of urine collected for 10 minutes after the administration of the compound was equal to twice the amount of urine collected for 10 minutes before the administration.

[1] = test system: rats with DOCA/saline-induced hypertension; experiment: Hypotensive activity in rats with DOCA/saline-induced hypertension (systolic pressure measured indirectly through the caudal artery); format: in vivo, male Wistar rats; settings: 30 mg/kg orally once a day for 5 days, versus initial value; for Percent change of systolic pressure Day 1: measured 4 hour after administration on day 1; for Percent change of systolic pressure Day 3: measured 4 hour after administration on day 3; for Percent change of systolic pressure Day 5: measured 4 hour after administration on day 5
Experimental: Evaluation Test 1 (Hypotensive activity in rats with DOCA/saline-induced hypertension]
Rats with DOCA/saline-induced hypertension were prepared according to the method described in an article by H. Selye, C.E. Hall and E.M. Rowly tCanadian Medical Association Journal, Vol. 49, p. 88, 1943). More specifically, 5-weeks-old male Wistar rats, weighing 100 to 120 g, were placed under anesthesia with ether and their left kidney was excised. Thereafter, they were allowed to take saline (a 1% aqueous solution of sodium chloride) instead of water. In addition, 10 mg/kg of deoxycorticosterone acetate was subcutaneously administered once a week. After 4-6 weeks, these rats developed hypertension.
Blood pressure was measured according to the method described in an article by M. Gerold and H. Tschirky (Arzneimittelforschung, Vol. 18, p. 1285, 1968). More specifically, using a Model 8002 or 8005 BP Recorder (W+W Electronic Co.), the systolic pressure of each rat was indirectly measured through the caudal artery. The rats were placed in a high-temperature environment (45±2°C) prior to every measurement. Among the rats (aged 15-17 weeks) with DOCA/saline-induced hypertension, only those showing a systolic pressure of 170 mmHg or above were used in groups of 3 or 4.
A compound to be tested was suspended in a 0.2% solution of carboxymethyl cellulose and administered orally to the rats in a dose of 30 mg/kg. This administration was performed once a day and continued for 5 days. Blood pressure measurements were made before the administration of the compound and 4 hour after the administration on days 1, 3, and 5.

[2] = Canis lupus familiaris, intravenous

CC1Cc2ccccc2N1NC(=O)c1cc(S(N)(=O)=O)c(Cl)cc1Cl (stereo not shown) [Example 1, N-(2,4-dichloro-5-sulfamoylbenzamido)-2-methylindoline]
ED100 (anesthetized dogs; [2]): > 2 mg/kg | diuretic effect (anesthetized dogs; intravenous): little diuretic effect | Percent change of systolic pressure Day 1 [1]: -12% | Percent change of systolic pressure Day 3 [1]: -25% | Percent change of systolic pressure Day 5 [1]: -28%

CC1Cc2ccccc2N1NC(=O)c1cc(S(N)(=O)=O)c(Cl)cc1Br (stereo not shown) [Example 2, N-(2-bromo-4-chloro-5-sulfamoylbenzamido)-2-methylindoline]
ED100 (anesthetized dogs; [2]): > 2 mg/kg | diuretic effect (anesthetized dogs; intravenous): little diuretic effect | Percent change of systolic pressure Day 1 [1]: -12% | Percent change of systolic pressure Day 3 [1]: -24% | Percent change of systolic pressure Day 5 [1]: -25%

CC1Cc2ccccc2N1NC(=O)c1ccc(Cl)c(S(N)(=O)=O)c1 (stereo not shown) [Indapamide, N-(3-sulfamoyl-4-chlorobenzamido)-2-methylindoline, reference compound]
ED100 (anesthetized dogs; [2]): 0.2 mg/kg | minimal effective dose (anesthetized dogs; Canis lupus familiaris, intravenous, anesthetized dogs, read-out: dose at which the compound began to exert a diuretic effect): 0.05 mg/kg | increase of urine excretion (factor) (anesthetized dogs; intravenous dose of 0.2 mg/kg): approximately 2 | Percent change of systolic pressure Day 1 [1]: -13% | Percent change of systolic pressure Day 3 [1]: -20% | Percent change of systolic pressure Day 5 [1]: -22%

From patent EP0068239A2, “Sulfamoylbenzoic acid derivatives and pharmaceutical compositions comprising same” (MITSUI TOATSU CHEMICALS, Inc., priority 1981, dated 1983)
